# Source: PubChem BioAssay (NCI)
# Several values for one entry are separate records, joined by “and”; a condition that tells them apart may be missing. Equal values may be shown once.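 Interpolation was linear, between the two tested concentrations surrounding the appropriate level; five concentrations were tested over 48 hours in 96-well plates. GI50: concentration for 50% inhibition of growth. The concentration for full growth arrest is given as TGI.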
# What was measured:
# Experiment in all cases: growth of human tumour cells (NCI), 48 h
# MDA-MB-231 breast = system: MDA-MB-231 breast
# SF-295 CNS = system: SF-295 CNS
# COLO 205 colon = system: COLO 205 colon
# MOLT-4 leukemia = system: MOLT-4 leukemia
# HCC-2998 colon = system: HCC-2998 colon
# NCI-H226 lung = system: NCI-H226 lung
# MALME-3M melanoma = system: MALME-3M melanoma
# SK-MEL-2 melanoma = system: SK-MEL-2 melanoma
# SW-620 colon = system: SW-620 colon
# NCI/ADR-RES ovarian = system: NCI/ADR-RES ovarian
SMILES,GI50 (MDA-MB-231 breast),TGI (MDA-MB-231 breast),GI50 (SF-295 CNS),TGI (SF-295 CNS),GI50 (COLO 205 colon),TGI (COLO 205 colon),GI50 (MOLT-4 leukemia),TGI (MOLT-4 leukemia),GI50 (HCC-2998 colon),TGI (HCC-2998 colon),GI50 (NCI-H226 lung),TGI (NCI-H226 lung),GI50 (MALME-3M melanoma),TGI (MALME-3M melanoma),GI50 (SK-MEL-2 melanoma),TGI (SK-MEL-2 melanoma),GI50 (SW-620 colon),TGI (SW-620 colon),GI50 (NCI/ADR-RES ovarian),TGI (NCI/ADR-RES ovarian)
Nc1c(C(=O)N/N=C/c2ccc(-c3cc(Cl)c(Cl)cc3Cl)o2)cnn1-c1ccnc2c(C(F)(F)F)cccc12,3.83 µM,22 µM,3.27 µM,> 100 µM,2.57 µM,5.78 µM,2.91 µM,> 100 µM,3.64 µM,> 100 µM,5.62 µM,> 100 µM,2.66 µM,10.6 µM,5.31 µM,34.3 µM,4.05 µM,> 100 µM,3.58 µM,87.9 µM
COc1cc(F)c(/C=C/c2cc(/C=C/c3cc(OC)c(OC)cc3F)n(-c3cc(F)cc(F)c3)n2)cc1OC,2.62 µM,8.86 µM,2.97 µM,11.4 µM,3.95 µM,26.8 µM,6.64 µM,> 100 µM,6.18 µM,47.9 µM,14.8 µM,43.6 µM,1.78 µM,4.06 µM,3.08 µM,10.3 µM,2.44 µM,5.86 µM,2.23 µM,5.65 µM
Nc1ccc(C(OC(=O)c2cc3ccccc3c(Cc3c(O)c(C(=O)OC(c4ccc(N)cc4)(c4ccc(N)cc4)c4ccc(N)cc4)cc4ccccc34)c2O)(c2ccc(N)cc2)c2ccc(N)cc2)cc1,2.8 µM,8.76 µM,0.475 µM,> 100 µM,1.21 µM,3.15 µM,4.33 µM,86.1 µM,1.83 µM,15.5 µM,1.76 µM,15.7 µM,1.94 µM,20.1 µM,1.4 µM,4.55 µM,1.14 µM,13.9 µM,15.5 µM,> 100 µM
O=C(CCSc1ccnc2c(C(F)(F)F)cccc12)N/N=C/c1cc(Cl)c(Cl)cc1Cl,16.8 µM,32.6 µM,26.4 µM,62.3 µM,24.6 µM,67.7 µM,32.2 µM,98.8 µM,34.6 µM,> 100 µM,17.6 µM,39.3 µM,50.1 µM,> 100 µM,50.5 µM,> 100 µM,23.8 µM,43.4 µM,23 µM,49.7 µM
CCc1ccc2nccc(NCCCN(C)C)c2c1[N+](=O)[O-],–,> 100 µM,–,> 100 µM,–,94.1 µM,–,> 100 µM,–,> 100 µM,–,> 100 µM,–,> 100 µM,–,> 100 µM,–,> 100 µM,–,> 100 µM
CC1(C)CC([P+](c2ccccc2)(c2ccccc2)c2ccccc2)=NN1,13.7 µM,> 100 µM,8.68 µM,43.9 µM,1.44 µM,3.36 µM,6.03 µM,> 100 µM,2.79 µM,> 100 µM,5.53 µM,84.5 µM,3.43 µM,> 100 µM,5.09 µM,> 100 µM,4.57 µM,> 100 µM,> 100 µM,> 100 µM
O=C(N/N=C/c1ccc(Cl)cc1Cl)c1ccc2nc(-c3ccc(Cl)cc3)[nH]c2c1,1.85 µM,3.77 µM,1.86 µM,3.5 µM,1.55 µM,3.25 µM,1.55 µM,4.81 µM,1.82 µM,3.44 µM,1.77 µM,3.48 µM,1.55 µM,3.15 µM,2.09 µM,4.64 µM,1.83 µM,3.69 µM,1.83 µM,4.44 µM
Cn1cnc2c(F)c(Nc3ccc(Br)cc3F)c(C(=O)NOCCO)cc21,0.111 µM and 0.837 µM,> 100 µM,> 67.7 µM,> 100 µM,0.0113 µM and 0.0236 µM,–,> 100 µM,> 100 µM,0.0162 µM and 0.034 µM,4.51 µM,–,> 100 µM,0.0136 µM and < 0.01 µM,0.138 µM and 0.0486 µM,0.0296 µM and 0.0113 µM,0.448 µM and 0.0766 µM,0.029 µM and 0.0449 µM,> 100 µM,> 100 µM,> 100 µM
Cc1ncc(C(=O)Nc2ccc(CN3CCN(C)CC3)c(C(F)(F)F)c2)cc1C#Cc1c(N)ncc2ccccc12,0.163 µM,0.65 µM,0.568 µM,1.14 µM,0.131 µM,0.619 µM,0.228 µM,0.836 µM,0.446 µM,0.899 µM,0.393 µM,1.04 µM,0.102 µM,0.475 µM,0.545 µM,1.25 µM,0.227 µM,0.754 µM,0.67 µM,1.54 µM
Nc1nccc2c1ncn2C1OC(CO)C(O)C1O (stereo not drawn),> 100 µM,> 100 µM,> 100 µM,> 100 µM,> 100 µM,> 100 µM,> 100 µM,> 100 µM,> 100 µM,> 100 µM,> 100 µM,> 100 µM,> 100 µM,> 100 µM,> 100 µM,> 100 µM,92.4 µM,> 100 µM,> 100 µM,> 100 µM
Cc1ccc(Nc2cc(C)nc(NCCCNc3ccnc4cc(Cl)ccc34)n2)cc1,1.38 µM,2.87 µM,1.51 µM,2.92 µM,1.36 µM,2.77 µM,2.01 µM,6.67 µM,1.38 µM,2.8 µM,2.14 µM,5.91 µM,1.82 µM,3.74 µM,1.83 µM,3.34 µM,1.31 µM,2.83 µM,1.73 µM,3.54 µM
COc1cccc(N=N/C(=N\NC(=O)c2cc(Br)ccc2O)c2ccc(N(CCC#N)CCC#N)cc2OC)c1,71.9 µg/mL,> 150 µg/mL,52.6 µg/mL,> 150 µg/mL,33.1 µg/mL,106 µg/mL,54.7 µg/mL,> 150 µg/mL,21.3 µg/mL,73.2 µg/mL,22 µg/mL,79.7 µg/mL,57.7 µg/mL,142 µg/mL,47.9 µg/mL,> 150 µg/mL,63.1 µg/mL,> 150 µg/mL,120 µg/mL,> 150 µg/mL
C[C@@H](COCCC(=O)N1CCN(c2ncc(C(F)(F)F)cn2)CC1)Nc1cn[nH]c(=O)c1C(F)(F)F,> 100 µM,> 100 µM,19.5 µM,> 100 µM,98.6 µM,> 100 µM,22.9 µM,> 100 µM,> 100 µM,> 100 µM,> 56.2 µM,> 100 µM,> 100 µM,> 100 µM,> 100 µM,> 100 µM,3.84 µM,> 100 µM,> 90.5 µM,> 100 µM
CC(C)C[C@H](NC(=O)[C@H](Cc1cccc2ccccc12)NS(=O)(=O)c1cccc2cccnc12)B(O)O,–,0.0567 µM and 0.0597 µM,0.0614 µM and 0.0596 µM,–,0.0288 µM,3.79 µM,0.000334 µM,0.00228 µM,0.0174 µM,0.0149 µM and 0.0389 µM,–,0.000542 µM,0.000588 µM,0.0175 µM and 0.0208 µM,–,0.095 µM and 0.0833 µM,0.0015 µM,0.0223 µM,–,17.7 µM
FC(F)(F)c1cccc2c(SCCc3n[nH]c(=S)o3)ccnc12,43.1 µM,> 100 µM,48.7 µM,> 100 µM,64.8 µM,> 100 µM,31.2 µM,> 100 µM,37.9 µM,> 100 µM,37.1 µM,> 100 µM,44.5 µM,> 100 µM,25.4 µM,82.6 µM,> 100 µM,> 100 µM,38 µM,> 100 µM
Nc1cc(S(N)(=O)=O)ccc1SSc1ccc(S(N)(=O)=O)cc1N,–,> 100 µM,–,> 100 µM,–,> 100 µM,–,> 100 µM,–,> 100 µM,–,> 100 µM,–,> 100 µM,–,> 100 µM,–,> 100 µM,–,> 100 µM
CCOC(=O)C(C(=O)OCC)C(=O)c1ccccc1C(=O)c1ccccc1,–,> 100 µM,–,> 100 µM,–,> 100 µM,–,83.6 µM,–,> 100 µM,–,> 100 µM,–,> 100 µM,–,> 100 µM,–,50.5 µM,–,> 100 µM
COc1c(Cl)ccc2c(-c3nc4cc(Cl)c(F)cc4s3)cc(=O)oc12,2.84 µM,11.2 µM,10.4 µM,52 µM,10.1 µM,38.3 µM,4.1 µM,> 100 µM,38.5 µM,> 100 µM,11.7 µM,> 69.3 µM,2.11 µM,4.73 µM,21.4 µM,87.9 µM,10.3 µM,> 100 µM,8.76 µM,> 100 µM
NS(=O)(=O)c1ccc(-n2ncc3c(Nc4ccccc4)ncnc32)cc1,15 µM,87.1 µM,16.9 µM,53.4 µM,21.1 µM,> 100 µM,14.5 µM,61.4 µM,16.6 µM,57.7 µM,46.4 µM,> 100 µM,33 µM,> 100 µM,44.3 µM,> 100 µM,30.3 µM,> 100 µM,19.5 µM,55.4 µM
